Test results reported in ChEMBL document CHEMBL1151998, “Combretatroponeshybrids of combretastatin and colchicine. Synthesis and biochemical evaluation” (Bioorg Med Chem Lett, 1993).

Target: Tubulin beta chain (Bos taurus, UniProt Q6B856)
Assay: Compound was evaluated for in vitro inhibitory activity against polymerization of tubulin into microtubules isolated from bovine brain at 1 mg/mL tubulin concentration
Assay type: tissue-based

Chain of Tubulin beta chain (Q6B856 whole entry): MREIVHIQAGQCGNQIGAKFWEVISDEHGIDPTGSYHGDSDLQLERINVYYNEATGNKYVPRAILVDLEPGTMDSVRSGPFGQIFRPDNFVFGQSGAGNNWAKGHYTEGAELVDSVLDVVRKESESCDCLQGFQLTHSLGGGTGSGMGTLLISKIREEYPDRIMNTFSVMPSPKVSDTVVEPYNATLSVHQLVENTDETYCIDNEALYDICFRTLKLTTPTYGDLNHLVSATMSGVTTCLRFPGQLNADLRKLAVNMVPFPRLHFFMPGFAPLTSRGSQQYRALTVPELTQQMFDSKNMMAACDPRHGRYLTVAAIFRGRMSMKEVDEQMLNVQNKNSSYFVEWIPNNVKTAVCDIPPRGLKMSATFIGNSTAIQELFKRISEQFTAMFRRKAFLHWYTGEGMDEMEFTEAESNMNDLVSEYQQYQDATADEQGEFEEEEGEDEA

SMILES	IC50 [µM]
COc1cc(CCc2cccc(SC)c(=O)c2)cc(OC)c1OC	12
COc1cc(CCc2cccc(OC)c(=O)c2)cc(OC)c1OC	8.6
COc1ccc(-c2ccc(OC)c(=O)cc2)c(OC)c1OC	2.5
